Key:
Format in all cases: functional
Candida albicans [1] = assay: Growth inhibition of Candida albicans ATCC 10231 at 100 ug/ml by cup-plate method relative to control; conditions: read-out: GI
Candida albicans [2] = assay: Antifungal activity against Candida albicans ATCC 10231 at 100 ug/ml by cup-plate method; conditions: read-out: DIZ
Staphylococcus aureus [3] = assay: Growth inhibition of Staphylococcus aureus […] at 100 ug/ml by cup-plate method relative to control; conditions: read-out: GI
Escherichia coli = assay: Antibacterial activity against Escherichia coli […] at 100 ug/ml by cup-plate method; conditions: read-out: DIZ
Staphylococcus aureus [4] = assay: Antibacterial activity against Staphylococcus aureus […] at 100 ug/ml by cup-plate method; conditions: read-out: DIZ

Structure (SMILES) | inhibition of growth at 100 µg/mL (Candida albicans [1]) | zone of inhibition at 100 µg/mL (Candida albicans [2]) | inhibition of growth at 100 µg/mL (Staphylococcus aureus [3]) | zone of inhibition at 100 µg/mL (Escherichia coli) | zone of inhibition at 100 µg/mL (Staphylococcus aureus [4])
COc1ccc(/C=N/c2nnc(-c3cc4ccccc4oc3=O)o2)cc1OC | 50% | 10 mm | 48% | 10 mm | 12 mm
NNC(=O)c1cc2ccccc2oc1=O | 40% | 8 mm | 40% | 9 mm | 10 mm
O=c1oc2ccccc2cc1-c1nnc(/N=C/c2cccc(F)c2)o1 | 55% | 11 mm | 48% | 10 mm | 12 mm
CN(C)c1ccc(/C=N/c2nnc(-c3cc4ccccc4oc3=O)o2)cc1 | 80% | 16 mm | 48% | 12 mm | 12 mm
O=c1oc2ccccc2cc1-c1nnc(/N=C/c2cccc(Cl)c2)o1 | 70% | 14 mm |  | 17 mm | 
O=c1oc2ccccc2cc1-c1nnc(/N=C/c2cccc([N+](=O)[O-])c2)o1 |  |  | 64% | 12 mm | 17 mm
O=c1oc2ccccc2cc1-c1nnc(/N=C/c2ccc(F)cc2)o1 | 50% | 10 mm | 48% | 15 mm | 12 mm
O=c1oc2ccccc2cc1-c1nnc(/N=C/c2ccc([N+](=O)[O-])cc2)o1 |  |  | 64% | 12 mm | 17 mm
CC(=O)N1CCN(c2ccc(OCC3COC(Cn4ccnc4)(c4ccc(Cl)cc4Cl)O3)cc2)CC1 (configuration not stated) [KETOCONAZOLE] | 100% | 20 mm |  |  | 
COc1ccccc1/C=N/c1nnc(-c2cc3ccccc3oc2=O)o1 | 65% | 13 mm | 56% | 15 mm | 14 mm
O=c1oc2ccccc2cc1-c1nnc(/N=C/c2ccccc2[N+](=O)[O-])o1 |  |  | 64% | 14 mm | 17 mm
O=c1oc2ccccc2cc1-c1nnc(/N=C/c2ccccc2Cl)o1 | 65% | 13 mm |  | 17 mm | 
O=c1oc2ccccc2cc1-c1nnc(/N=C/c2ccccc2F)o1 | 65% | 13 mm | 48% | 10 mm | 12 mm
O=c1oc2ccccc2cc1-c1nnc(/N=C/c2ccc(Cl)cc2)o1 | 75% | 15 mm |  | 17 mm | 
O=c1oc2ccccc2cc1-c1nnc(/N=C/c2ccccc2)o1 | 60% | 12 mm | 80% | 20 mm | 20 mm
COc1cccc(/C=N/c2nnc(-c3cc4ccccc4oc3=O)o2)c1 | 70% | 14 mm | 56% | 15 mm | 14 mm
O=c1oc2ccccc2cc1-c1nnc(/N=C/c2cccc(O)c2)o1 | 55% | 11 mm | 40% | 15 mm | 10 mm
O=C(O)c1cn(C2CC2)c2cc(N3CCNCC3)c(F)cc2c1=O [CIPROFLOXACIN] |  |  | 100% |  | 25 mm
COc1ccc(/C=N/c2nnc(-c3cc4ccccc4oc3=O)o2)cc1 | 60% | 12 mm | 56% | 10 mm | 14 mm
O=c1oc2ccccc2cc1-c1nnc(/N=C/c2ccc(O)cc2)o1 | 45% | 9 mm | 40% | 10 mm | 10 mm
O=c1oc2ccccc2cc1-c1nnc(/N=C/c2ccccc2O)o1 | 50% | 10 mm | 40% | 12 mm | 10 mm

— ChEMBL document CHEMBL3044859, “Antimicrobial activity of Schiff bases of coumarin-incorporated 1,3,4-oxadiazole derivatives: an in vitro evaluation” (2013)
